Test results as given in PMC4769088, “Antifungal Activity and Action Mechanism of Histatin 5-Halocidin Hybrid Peptides against Candida ssp” (PLoS ONE, 2016).
Where a SMILES comes first, the peptide text is derived from it. Bridges are numbered along the chain shown (N, C = ends). Roman numbers before positions name the chains, in order. Where no end group is shown, it is not given here.

What was measured:
[1] = CD spectra, secondary structure analysis; type: physicochemical; details: 200 μg/ml peptide
Experimental: Circular dichroism (CD) spectra of the six peptides (Hst5, P113, HHP1, di-PH2, di-WP2 and di-18Hc) were measured with a J-715 spectropolarimeter (Jasco, Tokyo, Japan). Two hundred micrograms of each peptide was resuspended in 1 ml of 10 mM NaPB (pH 7.0) (i) without other additives, (ii) with 10% laminarin (LAM) or (iii) with 50% trifluoroethanol (TFE) (a known helix-inducing solvent). The spectra were measured at room temperature in a 1-mm-path-length quartz cell. The scanning speed was 10 nm/min (180 to 260 nm), and each spectrum was the average of five scans.
Fig 3 CD spectra of Hst5, P113, di-18Hc and hybrid peptides. This study was performed with one concentration (200 μg/ml) of each peptide in various buffers: 10 mM sodium phosphate buffer (Red line), 50% TFE in phosphate buffer (green line) and 20 mg of laminarin in phosphate buffer.

Candida albicans = type: cell-based; details: for reduction of cell viability: 1 μg/ml peptide, in 1 hour, colony count assay
Experimental: The candidacidal activities of the peptides were tested by using standard microdilution plate assays, radial diffusion assays and broth dilution assay slightly modified from the procedure recommended by the National Committee for Clinical Laboratory Standards. For the candidacidal assays, C. albicans cells were grown in YPD medium and washed twice with 10 mM sodium phosphate buffer (NaPB; Na2HPO4, NaH2PO4, pH 7.4). The cells (1 x 10^6) were then mixed with different concentrations of peptides and incubated at 30°C with constant shaking for 60 min. For energy depletion experiments, cells were pre-incubated with 10 mM NaPB containing 5 mM NaN3 at 30°C for 60 min before the addition of peptides. The cell suspensions were diluted in 10 mM NaPB and aliquots of 500 cells were spread onto YPD agar plates then incubated for 24 h at 30°C to visualize the surviving colonies. Cell survival was expressed as a percentage of that for the control, and the loss of viability was calculated as [1 x (number of colonies from peptide-treated cells/number of colonies from control cells)] x 100. Candidacidal assays were performed in triplicate. For the radial diffusion assay, C. albicans cells were grown in YPD medium overnight and washed twice with 10 mM NaPB. Washed yeast-phase C. albicans cells (1 x 10^6 CFU) were trapped in thin underlay gels containing 9 mM sodium phosphate, 1 mM sodium citrate buffer, 1% (wt/vol) agarose (A6013; Sigma), and 0.3 mg of Sabouraud dextrose broth (Difco)/ml. After incubation at 37°C for 3 h, a 10 ml overlay gel of 1% agarose and 6% Sabouraud dextrose broth was poured on the underlay gel and then the plates were incubated overnight at 37°C. The clear-zone diameters were measured to the nearest 0.1 mm and graphed against the peptide concentration. Zone diameters were expressed in units (0.1 mm = 1 unit). For the broth dilution assay, the Candida strains were cultured in LYM broth for 18 h at 30°C. The numbers of yeasts were counted using a hemocytometer. […] The antifungal activities were evaluated after 24 h of incubation at 30°C by the observation of visible turbidity the wells. The MIC values were expressed as intervals (a–b), with a representing the highest tested concentration at which microbes continue to grow, and b representing the lowest concentration at which growth inhibition could be detected.
Fig 4 Killing kinetics of Hst5, P113, di-18Hc, hybrid peptides against Candida albicans. Killing kinetics of peptides against C. albicans was measured by colony count assay. Candida cells were treated with a different concentration of peptides at a determined time. […] Killing percent was calculated with the following equation: Killing % = (number of control cell—number of treated cell)/control cell × 100.

[2] = solvent 10mM NaPB (pH 7.0), room temperature, average of five scans

Row | Compound | Secondary structure (%) Beta ([1]; solvent 10mM NaPB (pH 7.0)) | Secondary structure (%) Random ([1]; solvent 10mM NaPB (pH 7.0)) | Secondary structure (%) Turn ([1]; solvent 10mM NaPB (pH 7.0)) | Secondary structure (%) Helix [1, 2] | Secondary structure (%) Beta ([1]; solvent 50% TFE in 10 mM NaPB) | Secondary structure (%) Helix ([1]; solvent 50% TFE in 10 mM NaPB) | Secondary structure (%) Random ([1]; solvent 50% TFE in 10 mM NaPB) | Secondary structure (%) Turn ([1]; solvent 50% TFE in 10 mM NaPB) | reduction of cell viability (Candida albicans) | killing kinetics (time) (Candida albicans; membrane-attacking peptide with fast kinetics)
1 | AKRHHGYKRKFH-NH2 [P113] | 0.0% | 95.3% | 4.7% | 0.0% | 34.8% | 4.4% | 60.8% | 0.0% |  | 
2 | CC(C)C[C@H](NC(=O)CNC(=O)[C@H](Cc1c[nH]cn1)NC(=O)[C@H](Cc1c[nH]cn1)NC(=O)[C@H](CC(C)C)NC(=O)[C@H](CC(C)C)NC(=O)[C@H](C)NC(=O)[C@H](CC(N)=O)NC(=O)[C@H](CC(C)C)NC(=O)[C@@H](N)Cc1c[nH]c2ccccc12)C(=O)N[C@@H](CC(N)=O)C(=O)N[C@@H](CSSC[C@H](NC(=O)[C@H](CC(N)=O)NC(=O)[C@H](CC(C)C)NC(=O)CNC(=O)[C@H](Cc1c[nH]cn1)NC(=O)[C@H](Cc1c[nH]cn1)NC(=O)[C@H](CC(C)C)NC(=O)[C@H](CC(C)C)NC(=O)[C@H](C)NC(=O)[C@H](CC(N)=O)NC(=O)[C@H](CC(C)C)NC(=O)[C@@H](N)Cc1c[nH]c2ccccc12)C(=O)N[C@@H](C)C(=O)N[C@@H](CCCCN)C(=O)NCC(=O)N[C@H](C(=O)N[C@@H](CC(C)C)C(=O)N[C@@H](C)C(N)=O)C(C)C)C(=O)N[C@@H](C)C(=O)N[C@@H](CCCCN)C(=O)NCC(=O)N[C@H](C(=O)N[C@@H](CC(C)C)C(=O)N[C@@H](C)C(N)=O)C(C)C [di-18Hc, reference compound] (I: H-WLNALLHHGLNCAKGVLA-NH2 / II: H-WLNALLHHGLNCAKGVLA-NH2; disulfide I:12-II:12 (inferred); N-terminus assumed) | 29.2% | 61.5% | 5.5% | 3.8% | 10.4% | 47.0% | 28.4% | 14.2% | 99% | ≤ 30 s
3 | CC(C)C[C@H](NC(=O)CNC(=O)[C@H](Cc1c[nH]cn1)NC(=O)[C@H](Cc1c[nH]cn1)NC(=O)[C@H](CCCNC(=N)N)NC(=O)[C@H](CCCCN)NC(=O)[C@H](C)N)C(=O)N[C@@H](CC(N)=O)C(=O)N[C@@H](CSSC[C@H](NC(=O)[C@H](CC(N)=O)NC(=O)[C@H](CC(C)C)NC(=O)CNC(=O)[C@H](Cc1c[nH]cn1)NC(=O)[C@H](Cc1c[nH]cn1)NC(=O)[C@H](CCCNC(=N)N)NC(=O)[C@H](CCCCN)NC(=O)[C@H](C)N)C(=O)N[C@@H](C)C(=O)N[C@@H](CCCCN)C(=O)N[C@@H](Cc1ccccc1)C(=O)N[C@@H](Cc1c[nH]cn1)C(N)=O)C(=O)N[C@@H](C)C(=O)N[C@@H](CCCCN)C(=O)N[C@@H](Cc1ccccc1)C(=O)N[C@@H](Cc1c[nH]cn1)C(N)=O [di-PH2] (I: H-AKRHHGLNCAKFH-NH2 / II: H-AKRHHGLNCAKFH-NH2; disulfide I:9-II:9 (inferred); N-terminus assumed) | 29.2% | 70.8% | 0.0% | 0.0% | 32.9% | 10.1% | 51.8% | 5.2% | 99% | 
4 | C[C@H](NC(=O)[C@H](Cc1c[nH]cn1)NC(=O)[C@H](CO)NC(=O)[C@@H](N)CC(=O)O)C(=O)N[C@@H](CCCCN)C(=O)N[C@@H](CCCNC(=N)N)C(=O)N[C@@H](Cc1c[nH]cn1)C(=O)N[C@@H](Cc1c[nH]cn1)C(=O)NCC(=O)N[C@@H](Cc1ccc(O)cc1)C(=O)N[C@@H](CCCCN)C(=O)N[C@@H](CCCNC(=N)N)C(=O)N[C@@H](CCCCN)C(=O)N[C@@H](Cc1ccccc1)C(=O)N[C@@H](Cc1c[nH]cn1)C(=O)N[C@@H](CCC(=O)O)C(=O)N[C@@H](CCCCN)C(=O)N[C@@H](Cc1c[nH]cn1)C(=O)N[C@@H](Cc1c[nH]cn1)C(=O)N[C@@H](CO)C(=O)N[C@@H](Cc1c[nH]cn1)C(=O)N[C@@H](CCCNC(=N)N)C(=O)NCC(=O)N[C@@H](Cc1ccc(O)cc1)C(=O)O [Hst 5, Histatin 5] | 19.3% | 74.5% | 6.2% | 0% | 7.3% | 76.2% | 0.0% | 16.4% |  | 
5 | CC(C)C[C@H](NC(=O)[C@@H](N)Cc1c[nH]c2ccccc12)C(=O)N[C@@H](CC(N)=O)C(=O)N[C@@H](C)C(=O)N[C@@H](CCCCN)C(=O)N[C@@H](CCCNC(=N)N)C(=O)N[C@@H](Cc1c[nH]cn1)C(=O)N[C@@H](Cc1c[nH]cn1)C(=O)NCC(=O)N[C@@H](Cc1ccc(O)cc1)C(=O)N[C@@H](CCCCN)C(=O)N[C@@H](CSSC[C@H](NC(=O)[C@H](CCCCN)NC(=O)[C@H](Cc1ccc(O)cc1)NC(=O)CNC(=O)[C@H](Cc1c[nH]cn1)NC(=O)[C@H](Cc1c[nH]cn1)NC(=O)[C@H](CCCNC(=N)N)NC(=O)[C@H](CCCCN)NC(=O)[C@H](C)NC(=O)[C@H](CC(N)=O)NC(=O)[C@H](CC(C)C)NC(=O)[C@@H](N)Cc1c[nH]c2ccccc12)C(=O)N[C@@H](CCCCN)C(=O)N[C@@H](Cc1ccccc1)C(=O)N[C@@H](Cc1c[nH]cn1)C(N)=O)C(=O)N[C@@H](CCCCN)C(=O)N[C@@H](Cc1ccccc1)C(=O)N[C@@H](Cc1c[nH]cn1)C(N)=O [di-WP2] (I: H-WLNAKRHHGYKCKFH-NH2 / II: H-WLNAKRHHGYKCKFH-NH2; disulfide I:12-II:12 (inferred); N-terminus assumed) | 22.0% | 63.2% | 14.8% | 0.0% | 25.7% | 7.8% | 52.5% | 13.9% | 99% | 
